Data: paper PMC10239968, “[^18F]AlF-NOTA-ADH-1: A new PET molecular radiotracer for imaging of N-cadherin-positive tumors” (Frontiers in Oncology, 2023)

How the values were obtained:
BxPC3 tumor xenografts [1] = assay: Micro-PET imaging, BxPC3 tumor model; assay type: in vivo, nude mice; conditions: BxPC3-bearing tumor model mice, 60 min p.i.
Protocol: [^18F]AlF-NOTA-ADH-1 was evaluated by micro-PET imaging on nude mice bearing a PDX tumor, SW-480 and BxPC3 tumor xenografts. Each tumor-bearing nude mouse was injected with 3.7MBq [^18F]AlF-NOTA-ADH-1 via the tail vein. After being anesthetized with isoflurane, tumor-bearing nude mice were imaged using a micro-PET/CT scanner at 60 minutes post-injection under continuous isoflurane inhalation using a nasal mask with a connecting tube. Micro-PET/CT scanning was performed after low-dose 3D acquisition CT scanning at 10 minutes per bed. A blocking study was conducted, in which a saturating dose of unlabeled ADH-1 (20 mg/kg of mouse body weight) was intravenously administered 60 min before the intravenous injection of [^18F]AlF-NOTA-ADH-1.
The three-dimensional volume of interest (VOI) was used to assess the standard uptake value (SUV) of selected organs. The Seimens Inveon analysis software configured with micro-PET/CT was used to delineate the region of interest along the edge of the tumor and each normal tissue on the PET image. Subsequently, the SUV of each region of interest was measured, and the tumor/non-tumor ratio (T/NT) between the tumor and normal tissue was measured.

in vivo = assay type: in vivo, BALB/c nu/nu mice; conditions: female, BALB/c nu/nu, mouse, in vivo, iv, total radioactivity
Protocol: (§1) All animal experiments were performed in accordance with and approved by the Institutional Animal Care and Use Committee guidelines of the First Affiliated Hospital of Zhejiang University School of Medicine. BALB/c nu/nu mice (female, 20 ± 3 g, 4- to 6-week-old; Department of Laboratory Animal Science, Zhejiang University) were used in this study. The SW480 and BxPC3 xenografts were generated, and 5×10^6 tumor cells were subcutaneously injected into the flanks of female athymic nude mice. The PDX-bearing mouse models were established as follows. Pancreatic cancer (diagnosed as pancreatic ductal adenocarcinoma) tissues were obtained from the surgery of a patient. Written informed consent was obtained from the patient, and the research protocol was approved by the Clinical Research Ethics Committee of the First Affiliated Hospital of Zhejiang University School of Medicine. The sample was sectioned into about 1mm^3 pieces, and the tumor tissues were subcutaneously implanted into BALB/c nu/nu mice flanks. Mice were allowed free access to sterile water and food and were kept under strict disease-free conditions with controlled temperature (~25°C), humidity (50-70%), and circadian rhythms (12-hour light/dark cycles). All necessary procedures were carried out to minimize discomfort and avoid the waste of animals. The length and width of the tumor were measured every other day. Biodistribution studies and positron emission tomography in mice were performed after the tumor volume reached 150 to 200 mm^3.
(§2) The BALB/c nude mice were randomized into different tumor models (SW480, BxPC3, and pancreatic PDX), including 5 mice per group. Each nude mouse was injected with 0.74MBq (20μCi) [^18F]AlF-NOTA-ADH-1 through the caudal vein. Blood was collected from the orbit, and the mice were dissected to collect the brain, heart, lung, liver, liver, spleen, stomach, intestine, muscle, bone and others at 30 min, […], 60min, 90min and 120min after injection. In the blocked group, the study was performed with a saturating dose of ADH-1 (20 mg/kg of mouse body weight) intravenously administered 60min before the intravenous injection of [^18F]AlF-NOTA-ADH-1 in the pancreatic PDX model and SW480 xenograft model. The mice in the tumor xenograft model were sacrificed 1h after [^18F]AlF-NOTA-ADH-1 injection. The nude mice were dissected, and tumor tissues and related tissues (blood, brain, heart, lung, liver, spleen, kidney, stomach, intestine, muscle and bone) were weighed, and their radioactivity was measured by γ-counter. The radioactivity results were recorded as % ID/g.

BxPC3 tumor xenografts [2] = assay: in vivo; assay type: in vivo, BALB/c nu/nu mice; conditions: for T/Blood ratio / T/Muscle ratio / Tumor uptake: BxPC3 xenograft nude mice, n=5, mean±SD
Protocol: as §1, §2

[3] = In vitro stability in PBS; assay type: physicochemical; conditions: 3.7 MBq in 0.5 mL PBS, 37 °C (results; method: room temperature), radio-TLC or radio-HPLC
Protocol: The stability of [^18F]AlF-NOTA-ADH-1 was tested in PBS and bovine serum. In brief, 3.7 MBq of[^18F]AlF-NOTA-ADH-1 was pipetted into 0.5 mL of PBS and incubated in PBS at room temperature or bovine serum at 37°C. For the study, an aliquot of the solution was directly taken at 1, 6, and 8 h after incubation, and the radiochemical purity was determined by radio-TLC or radio-HPLC under identical conditions.

[4] = system: pancreatic PDX tumor xenografts; assay: in vivo; set-up: species or system BALB/c nu/nu mice; conditions: PDX xenograft nude mice, n=5, mean±SD
Protocol: as §1, §2

[5] = 0.74 MBq (20 uCi) per mouse, Kidney uptake
[6] = blocking (ADH-1 20 mg/kg i.v. 60min before), 60min p.i.

CC(=O)N[C@H]1CSSC[C@@H](C(=O)NCCNC(=O)CN2CCN(CC(=O)O)CCN(CC(=O)O)CC2)NC(=O)[C@H](C(C)C)NC(=O)[C@H](C)NC(=O)[C@H](Cc2c[nH]cn2)NC1=O [[^18F]AlF-NOTA-ADH-1]
Micro-PET T/Bone (BxPC3 tumor xenografts [1]): 0.055 ± 0.022
Micro-PET T/Lung (BxPC3 tumor xenografts [1]): 0.291 ± 0.195
Micro-PET tumor/muscle ratio (BxPC3 tumor xenografts [1]): 1.018 ± 0.498
tissue uptake at 1 h (in vivo; [5]): 10.2 ± 0.47 %ID/g
tissue uptake at 1.5 h (in vivo; [5]): 9.39 ± 0.75 %ID/g
tissue uptake at 2 h (in vivo; [5]): 6.61 ± 0.87 %ID/g
tissue uptake at 0.5 h (in vivo; 0.74 MBq, Muscle uptake): 1.03 ± 0.4 %ID/g
tissue uptake at 0.5 h (in vivo; 0.74 MBq, Pancreas uptake): 0.23 ± 0.08 %ID/g
tissue uptake at 1 h (in vivo; 0.74 MBq, Pancreas uptake): 0.61 ± 0.09 %ID/g
tissue uptake at 1.5 h (in vivo; 0.74 MBq, Pancreas uptake): 0.49 ± 0.23 %ID/g
tissue uptake at 2 h (in vivo; 0.74 MBq, Pancreas uptake): 0.65 ± 0.11 %ID/g
Tumor tissue uptake (BxPC3 tumor xenografts [2]; BxPC3 tumor model): no significant uptake
T/Blood ratio (BxPC3 tumor xenografts [2]; 30min p.i.): 3.18± 0.08
T/Muscle ratio (BxPC3 tumor xenografts [2]; 30min p.i.): 0.86±0.21
Tumor uptake (BxPC3 tumor xenografts [2]; 30min p.i.): 0.89±0.12 %ID/g
T/Blood ratio (BxPC3 tumor xenografts [2]; 60min p.i.): 4.22±0.23
T/Muscle ratio (BxPC3 tumor xenografts [2]; 60min p.i.): 0.96±0.32
Tumor uptake (BxPC3 tumor xenografts [2]; 60min p.i.): 1.07±0.36 %ID/g
T/Blood ratio (BxPC3 tumor xenografts [2]; 90min p.i.): 5.45±0.10
T/Muscle ratio (BxPC3 tumor xenografts [2]; 90min p.i.): 0.66±0.19
Tumor uptake (BxPC3 tumor xenografts [2]; 90min p.i.): 0.60±0.12 %ID/g
T/Blood ratio (BxPC3 tumor xenografts [2]; 120min p.i.): 1.42±0.13
T/Muscle ratio (BxPC3 tumor xenografts [2]; 120min p.i.): 0.63±0.23
Tumor uptake (BxPC3 tumor xenografts [2]; 120min p.i.): 0.37±0.07 %ID/g
Radiochemical purity after 8 h in PBS [3]: about 95.5%
T/Blood ratio [4, 6]: 9.39± 0.10
T/Muscle ratio [4, 6]: 2.12±0.06
Tumor uptake [4, 6]: 3.75±0.07 %ID/g
T/Blood ratio ([4]; non-blocking, 30min p.i.): 10.72± 1.02
T/Muscle ratio ([4]; non-blocking, 30min p.i.): 5.69±0.72
Tumor uptake ([4]; non-blocking, 30min p.i.): 8.04±1.82 %ID/g
T/Blood ratio ([4]; non-blocking, 60min p.i.): 19.21± 2.20
T/Muscle ratio ([4]; non-blocking, 60min p.i.): 8.70±2.68
Tumor uptake ([4]; non-blocking, 60min p.i.): 10.76±2.16 %ID/g
T/Blood ratio ([4]; non-blocking, 90min p.i.): 13.54± 0.35
T/Muscle ratio ([4]; non-blocking, 90min p.i.): 4.15±1.86
Tumor uptake ([4]; non-blocking, 90min p.i.): 7.18±0.53 %ID/g
T/Blood ratio ([4]; non-blocking, 120min p.i.): 10.27±1.36
T/Muscle ratio ([4]; non-blocking, 120min p.i.): 3.97±1.56
Tumor uptake ([4]; non-blocking, 120min p.i.): 4.93±1.65 %ID/g
